Values of other authors as cited in article PMC10928227, “Assessing biologic/toxicologic effects of extractables from plastic contact materials for advanced therapy manufacturing using cell painting assay and cytotoxicity screening” (Scientific Reports, 2024).
Read-outs that look alike come from different tables or passages of the source.

How the values were obtained:
[1] = cited from earlier work; for Gene mutation, Mammalian Cell Gene Mutation Assay: T-lymphoma Cell Lines
[2] = cited from earlier work; for Chromosome aberration, Micronucleus Assay / DNA damage and repair, COMET or Alkaline Elution / DNA damage and repair, Single Cell Gel Electrophoresis (comet) Assay: in Vivo; for DNA damage and repair, Single Cell Gel Electrophoresis (comet) Assay: ref Yu F. Sasaki et. al., 2000, Critical Reviews in Toxicology,30(6),Pp.629-799
[3] = Salmonella typhimurium, No Strain Information, in Vitro, Database: Genotoxicity OASIS, ref Mutation Research 584 (2005) 1-256, Kirkland et al.
[4] = Salmonella typhimurium, Strain TA 97, in Vitro, Database: Bacterial mutagenicity ISSSTY, ref CCRIS database,Toxnet databases (Romualdo Benigni)
[5] = Salmonella typhimurium, Strain TA 98, in Vitro, Database: Bacterial mutagenicity ISSSTY, ref CCRIS database,Toxnet databases (Romualdo Benigni)
[6] = Salmonella typhimurium, Strain TA 98, in Vitro, Database: Genotoxicity OASIS, ref P&G
[7] = Salmonella typhimurium, Strain TA 100, in Vitro, Database: Bacterial mutagenicity ISSSTY, ref CCRIS database,Toxnet databases (Romualdo Benigni)
[8] = Salmonella typhimurium, Strain TA 100, in Vitro, Database: Genotoxicity OASIS, ref P&G
[9] = Salmonella typhimurium, Strain TA 102, in Vitro, Database: Bacterial mutagenicity ISSSTY, ref CCRIS database,Toxnet databases (Romualdo Benigni)
[10] = Salmonella typhimurium, Strain TA 1535, in Vitro, Database: Bacterial mutagenicity ISSSTY, ref CCRIS database,Toxnet databases (Romualdo Benigni)
[11] = Salmonella typhimurium, Strain TA 1535, in Vitro, Database: Genotoxicity OASIS, ref P&G
[12] = Salmonella typhimurium, Strain TA 1537, in Vitro, Database: Bacterial mutagenicity ISSSTY, ref CCRIS database,Toxnet databases (Romualdo Benigni)
[13] = Salmonella typhimurium, Strain TA 1537, in Vitro, Database: Genotoxicity OASIS, ref P&G
[14] = in Vitro, Database Genotoxicity & Carcinogenicity ECVAM, ref EURL ECVAM genotoxicity and carcinogencity database, Madia F et al, 2020
[15] = in Vitro, Database Genotoxicity OASIS, ref Mutation Research 584 (2005) 1-256, Kirkland et al.
[16] = in Vitro, No Strain Information, Database Genotoxicity OASIS, ref Mutation Research 584 (2005) 1-256, Kirkland et al.
[17] = in Vitro, Salmonella typhimurium, Strain TA 97, Database Genotoxicity OASIS, ref P&G
[18] = in Vitro, Salmonella typhimurium, Strain TA 98, Database Genotoxicity OASIS, ref P&G
[19] = in Vitro, Salmonella typhimurium, Strain TA 100, Database Genotoxicity OASIS, ref P&G
[20] = in Vitro, Salmonella typhimurium, Strain TA 102, OECD Guideline 471, Database Genotoxicity OASIS, ref CCRIS database,Toxnet databases
[21] = in Vitro, Salmonella typhimurium, Strain TA 1535, Database Genotoxicity OASIS, ref P&G
[22] = in Vitro, Salmonella typhimurium, Strain TA 1537, Database Genotoxicity OASIS, ref P&G
[23] = in Vitro, Salmonella typhimurium, Strain TA 1538, Database Genotoxicity OASIS, ref P&G
[24] = Database Genotoxicity & Carcinogenicity ECVAM, ref EURL ECVAM genotoxicity and carcinogencity database, Madia F et al, 2020

SMILES | Gene mutation, Bacterial Reverse Mutation Assay (e.g. Ames Test) [1, 3] | Gene mutation, Bacterial Reverse Mutation Assay (e.g. Ames Test) [1, 4] | Gene mutation, Bacterial Reverse Mutation Assay (e.g. Ames Test) [1, 5] | Gene mutation, Bacterial Reverse Mutation Assay (e.g. Ames Test) [1, 6] | Gene mutation, Bacterial Reverse Mutation Assay (e.g. Ames Test) [1, 7] | Gene mutation, Bacterial Reverse Mutation Assay (e.g. Ames Test) [1, 8] | Gene mutation, Bacterial Reverse Mutation Assay (e.g. Ames Test) [1, 9] | Gene mutation, Bacterial Reverse Mutation Assay (e.g. Ames Test) [1, 10] | Gene mutation, Bacterial Reverse Mutation Assay (e.g. Ames Test) [1, 11] | Gene mutation, Bacterial Reverse Mutation Assay (e.g. Ames Test) [1, 12] | Gene mutation, Bacterial Reverse Mutation Assay (e.g. Ames Test) [1, 13] | Chromosome aberration, Micronucleus Assay [1, 14] | Gene mutation, Bacterial Reverse Mutation Assay (e.g. Ames Test) [1, 14] | Gene mutation, Mammalian Cell Gene Mutation (MLA HPRT) [1, 14] | Chromosome aberration, in Vitro Mammalian Chromosome Aberration Test [1, 16] | Gene mutation, Bacterial Reverse Mutation Assay (e.g. Ames Test) [1, 17] | Gene mutation, Bacterial Reverse Mutation Assay (e.g. Ames Test) [1, 18] | Gene mutation, Bacterial Reverse Mutation Assay (e.g. Ames Test) [1, 19] | Gene mutation, Bacterial Reverse Mutation Assay (e.g. Ames Test) [1, 20] | Gene mutation, Bacterial Reverse Mutation Assay (e.g. Ames Test) [1, 21] | other results
Oc1ccccc1 [108-95-2] | Negative | Negative | Negative | Negative | Negative | Negative | Negative | Negative | Negative | Negative | Negative | Positive | Negative | Positive | Positive | Negative | Negative | Negative | Negative | Negative | Gene mutation, Bacterial Reverse Mutation Assay (e.g. Ames Test) ([1]; Salmonella typhimurium, Strain TA 104, in Vitro, Database: Bacterial mutagenicity ISSSTY, ref CCRIS database,Toxnet databases (Romualdo Benigni)): Negative; Gene mutation, Bacterial Reverse Mutation Assay (e.g. Ames Test) ([1]; Salmonella typhimurium, Strain TA 7001, in Vitro, Database: Bacterial mutagenicity ISSSTY, ref CCRIS database,Toxnet databases (Romualdo Benigni)): Negative; Gene mutation, Bacterial Reverse Mutation Assay (e.g. Ames Test) ([1]; Salmonella typhimurium, Strain TA 7002, in Vitro, Database: Bacterial mutagenicity ISSSTY, ref CCRIS database,Toxnet databases (Romualdo Benigni)): Negative; Gene mutation, Bacterial Reverse Mutation Assay (e.g. Ames Test) ([1]; Salmonella typhimurium, Strain TA 7003, in Vitro, Database: Bacterial mutagenicity ISSSTY, ref CCRIS database,Toxnet databases (Romualdo Benigni)): Negative; Gene mutation, Bacterial Reverse Mutation Assay (e.g. Ames Test) ([1]; Salmonella typhimurium, Strain TA 7004, in Vitro, Database: Bacterial mutagenicity ISSSTY, ref CCRIS database,Toxnet databases (Romualdo Benigni)): Negative; Gene mutation, Bacterial Reverse Mutation Assay (e.g. Ames Test) ([1]; Salmonella typhimurium, Strain TA 7005, in Vitro, Database: Bacterial mutagenicity ISSSTY, ref CCRIS database,Toxnet databases (Romualdo Benigni)): Negative; Gene mutation, Bacterial Reverse Mutation Assay (e.g. Ames Test) ([1]; Salmonella typhimurium, Strain TA 7006, in Vitro, Database: Bacterial mutagenicity ISSSTY, ref CCRIS database,Toxnet databases (Romualdo Benigni)): Negative; Genetic Toxicity, Gene mutation (Bacterial Reverse Mutation Assay, e.g. Ames Test) ([1]; Salmonella typhimurium, strain TA 100, in Vitro, scale Gene mutation I, ref CCRIS database, Toxnet databases, Database: Bacterial mutagenicity ISSSTY (Romualdo Benigni, 2011)): Negative; Chromatids exchanges/ recombination, Sister Chromatid Exchange (SCE) [1, 14]: Positive; DNA damage and repair, DNA Adducts [1, 14]: Positive; Gene mutation, in Vitro Mammalian Cell Micronucleus Test [1, 15]: Positive; Gene mutation, Bacterial Reverse Mutation Assay (e.g. Ames Test) [1, 22]: Negative; Gene mutation, Bacterial Reverse Mutation Assay (e.g. Ames Test) [1, 23]: Negative; Gene mutation, Mammalian Cell Gene Mutation Assay [1, 15]: Positive; Genetic Toxicity, unscheduled DNA synthesis (UDS in Vitro) ([1]; in Vitro, scale Mutagenicity I (ECVAM), ref EURL ECVAM genotoxicity and carcinogencity database, Madia F et al, 2020): Positive; Chromosome aberration, in Vivo Mammalian Chromosome Aberration Test [2, 24]: Negative; Chromosome aberration, Micronucleus Assay [2, 24]: Positive; DNA damage and repair, COMET or Alkaline Elution [2, 24]: Positive; Chromosome aberration, Micronucleus Assay ([2]; Database Genotoxicity OASIS, ref Ciranni, R., Barale, & Marrazzini, A. (1988), Mutat Res, 208, 61-67): Negative; DNA damage and repair, Single Cell Gel Electrophoresis (comet) Assay ([2]; Database Genotoxicity OASIS): Positive
OCc1ccccc1 [100-51-6] | Negative | Negative | Negative | Negative | Negative | Negative | Negative | Negative | Negative | Negative | Negative | Negative | Negative | Inadequate | Positive | Negative | Negative | Negative | Negative | Negative | Chromosome aberration, in Vitro Mammalian Chromosome Aberration Test ([1]; in Vitro, Chinese hamster, CHO Cells, Database Genotoxicity OASIS, ref ECHA, Registration dossier): Positive; Chromosome aberration, in Vitro Mammalian Chromosome Aberration Test ([1]; in Vitro, Chinese hamster, Chinese Hamster Lung (CHL), Duration 24÷48 h, Database Genotoxicity OASIS, ref Sofuni, T., Ed. (1998). Data Book of Chromosomal Aberration Test In Vitro, Revised Edition): Negative; Chromosome aberration, in Vitro Mammalian Chromosome Aberration Test [1, 14]: Negative; Gene mutation, Bacterial Reverse Mutation Assay (e.g. Ames Test) ([1]; in Vitro, Salmonella typhimurium, No Strain Information, Database Genotoxicity OASIS, ref Journal of Medicinal Chemistry 48 (1), pp. 312-32, 25, Kazius J, McGuire R., Bursi R): Negative; Gene mutation, Bacterial Reverse Mutation Assay (e.g. Ames Test) [1, 22]: Negative; Gene mutation, Bacterial Reverse Mutation Assay (e.g. Ames Test) [1, 23]: Negative; Gene mutation, Mammalian Cell Gene Mutation Assay [1, 15]: Positive; Chromosome aberration, Micronucleus Assay [2, 24]: Negative; DNA damage and repair, COMET or Alkaline Elution [2, 24]: Positive; Chromosome aberration, Micronucleus Assay ([2]; Database Genotoxicity OASIS, ref Hayashi M., et al., Food Chem. Toxicol., 26(6), 487-500, 1988): Negative; DNA damage and repair, Single Cell Gel Electrophoresis (comet) Assay ([2]; Database Genotoxicity OASIS): Negative
